The source of these data is ChEMBL document CHEMBL2074325, “The multidrug resistance protein 5 functions as an ATP-dependent export pump for cyclic nucleotides” (J Biol Chem, 2000).

What all share (assay type): functional, cell membranes, Membrane vesicle
Holding throughout (design): scale not given: the % may be the effect or the level left

In series [1] the target is T1, MRP5 (ABCC5) (Homo sapiens, UniProt O15440). Description: TP_TRANSPORTER: inhibition of cGMP uptake (cGMP: 5 uM, Trequinsin: 1 uM) in membrane vesicles from MRP5-expressing V79 cells. The conditions noted are these: hamster, probe cGMP (5 uM), read-out: Activity.
Series [2] has as its target T1, MRP5 (ABCC5). Description: TP_TRANSPORTER: inhibition of cGMP uptake (cGMP: 5 uM, Zaprinast: 10 uM) in membrane vesicles from MRP5-expressing V79 cells. The conditions noted are these: hamster, probe cGMP (5 uM), read-out: Activity.
The target of series [3] is T1, MRP5 (ABCC5). Kind of series: TP_TRANSPORTER: inhibition of cGMP uptake (cGMP: 5 uM, Sildenafil: 1 uM) in membrane vesicles from MRP5-expressing V79 cells. The conditions noted are these: hamster, probe cGMP (5 uM), read-out: Activity.
The target in series [4] is ATP-binding cassette sub-family C member 5 (Homo sapiens, UniProt O15440). Description: TP_TRANSPORTER: inhibition of cGMP uptake (cGMP: 5 uM, Probenecid: 50 uM) in membrane vesicles from MRP5-expressing V79 cells. As to conditions: hamster, v79, 50 µM.
The target of series [5] is T1, MRP5 (ABCC5). Description: TP_TRANSPORTER: inhibition of cGMP uptake (cGMP: 5 uM, Fluorescein diacetate: 50 uM) in membrane vesicles from MRP5-expressing V79 cells. As to conditions: hamster, probe cGMP (5 uM), read-out: Activity.

T1 sequence (O15440 whole entry): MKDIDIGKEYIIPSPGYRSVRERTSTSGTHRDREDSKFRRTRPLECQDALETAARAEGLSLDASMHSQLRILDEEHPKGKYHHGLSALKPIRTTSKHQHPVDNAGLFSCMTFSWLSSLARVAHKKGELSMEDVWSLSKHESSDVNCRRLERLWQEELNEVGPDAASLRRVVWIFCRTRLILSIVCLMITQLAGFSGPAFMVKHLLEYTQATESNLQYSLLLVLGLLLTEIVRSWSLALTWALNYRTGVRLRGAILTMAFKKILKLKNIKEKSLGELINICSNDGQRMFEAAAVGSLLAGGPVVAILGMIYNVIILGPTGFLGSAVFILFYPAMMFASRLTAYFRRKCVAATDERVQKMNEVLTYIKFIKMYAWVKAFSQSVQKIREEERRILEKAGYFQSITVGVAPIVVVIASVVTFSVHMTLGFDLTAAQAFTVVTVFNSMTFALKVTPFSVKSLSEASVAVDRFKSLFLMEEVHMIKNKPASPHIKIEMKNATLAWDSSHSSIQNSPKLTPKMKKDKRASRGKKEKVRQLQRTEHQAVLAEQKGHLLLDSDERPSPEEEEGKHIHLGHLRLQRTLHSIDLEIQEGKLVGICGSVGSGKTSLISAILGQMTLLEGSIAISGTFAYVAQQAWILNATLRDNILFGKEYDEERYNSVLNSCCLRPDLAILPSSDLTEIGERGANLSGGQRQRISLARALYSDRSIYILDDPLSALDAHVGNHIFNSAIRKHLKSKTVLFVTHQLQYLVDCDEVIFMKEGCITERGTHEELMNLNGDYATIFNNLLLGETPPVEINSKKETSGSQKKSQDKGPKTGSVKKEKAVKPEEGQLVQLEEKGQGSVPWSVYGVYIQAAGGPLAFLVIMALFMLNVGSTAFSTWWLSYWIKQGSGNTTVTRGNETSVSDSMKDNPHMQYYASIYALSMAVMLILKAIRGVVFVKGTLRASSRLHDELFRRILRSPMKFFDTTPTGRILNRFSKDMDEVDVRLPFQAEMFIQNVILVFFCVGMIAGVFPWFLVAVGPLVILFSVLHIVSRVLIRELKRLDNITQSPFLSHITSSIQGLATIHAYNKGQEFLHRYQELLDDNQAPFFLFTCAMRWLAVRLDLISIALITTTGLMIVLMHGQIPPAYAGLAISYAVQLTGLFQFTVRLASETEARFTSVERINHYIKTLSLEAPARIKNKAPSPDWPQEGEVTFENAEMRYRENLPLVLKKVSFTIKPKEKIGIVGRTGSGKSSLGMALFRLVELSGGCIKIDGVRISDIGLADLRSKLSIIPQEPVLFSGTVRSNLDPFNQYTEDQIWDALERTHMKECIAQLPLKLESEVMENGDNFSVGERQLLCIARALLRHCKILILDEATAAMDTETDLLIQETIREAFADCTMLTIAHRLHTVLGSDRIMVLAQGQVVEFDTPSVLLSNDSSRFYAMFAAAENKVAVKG
ATP-binding cassette sub-family C member 5, sequence (O15440 whole entry): as above

Turning to `COc1cc2c(cc1OC)-c1c/c(=N\c3c(C)cc(C)cc3C)n(C)c(=O)n1CC2` [TREQUINSIN], in series [1], the activity at 1 µM came to 26.2%.

On to `CCCOc1ccccc1-c1nc2nn[nH]c2c(=O)[nH]1` [ZAPRINAST], for which the activity at 10 µM in series [2] worked out at 41%.

In the case of `CCCc1nn(C)c2c(=O)[nH]c(-c3cc(S(=O)(=O)N4CCN(C)CC4)ccc3OCC)nc12`, the activity at 1 µM in series [3] was 22%.

As for `CCCN(CCC)S(=O)(=O)c1ccc(C(=O)O)cc1` [PROBENECID], the Activity in series [4] was found to be 31.7%.

With `CC(=O)Oc1ccc2c(c1)Oc1cc(OC(C)=O)ccc1C21OC(=O)c2ccccc21` [FLUORESCEIN DIACETATE], in series [5], the activity at 50 µM stood at 49.2%.
